Where two headings read alike, the source gives them in different places.
Tests used:
Mäusen = test: Acute toxicity (orientating), single oral dose in mice; conditions: in vivo, po, 300 mg/kg
Protocol: (§1) Die akute Toxizität der zu untersuchenden Substanzen wurde orientierend an Gruppen von je 10 Mäusen nach oraler Gabe einer Einzeldosis von 300 mg/kg bestimmt (Beobachtungszeit: 14 Tage): […]

[1] = as above; conditions: mouse, in vivo, read-out: Orientierend akute Toxizität
Protocol: as §1

[2] = mice, groups of 10, single oral dose of 300 mg/kg, observation time 14 days

COC(=O)COc1ccc(-c2nc3ncncc3[nH]2)c(OC)c1 [Substanz B, 8-(2-Methoxy-4-methoxycarbonylmethoxyphenyl)-purin]
Tieren gestorben (Mäusen): 0 von 10
LD50 at 336 h [1, 2]: > 300 mg/kg

C#CCOc1ccc(-c2nc3ncncc3[nH]2)c(OC)c1 [Substanz A, 8-(2-Methoxy-4-propargyloxyphenyl)-purin]
Tieren gestorben (Mäusen): 0 von 10
LD50 at 336 h [1, 2]: > 300 mg/kg

COc1cc(OCC#N)ccc1-c1nc2cncnc2[nH]1 [Substanz C, 8-(2-Methoxy-4-cyanmethoxyphenyl)-purin]
Tieren gestorben (Mäusen): > 300 mg/kg (O von 10 Tieren gestorben)
LD50 at 336 h ([1]; po, 300 mg/kg): > 300 mg/kg

Source: patent EP0142075A2, “Purine derivatives, their preparation, and medicaments containing these compounds” (Dr. Karl Thomae GmbH, priority 1983, dated 1985)
